Experimental data reported in ChEMBL document CHEMBL1150621, “Two new triterpenoids from Azadirachta indica and their insecticidal activity” (2002).
Values after ≈ are worked out from the molar mass of the structure shown.

Tested on: Anopheles stephensi
Assay: Insecticidal activity against fourth instar larvae of Anopheles stephensi assessed as mortality after 24 hrs
Type: functional

Structure (SMILES) | LC50
CC(=O)O[C@@H]1[C@H](O)[C@H]2C(C)(C)C(=O)C=C[C@]2(C)[C@H]2CC[C@]3(C)C(=CC[C@H]3C3=COCC3)[C@]12C | 60 µg/mL (≈ 132 µM)
CC(=O)O[C@@H]1[C@H](O)[C@H]2C(C)(C)C(=O)C=C[C@]2(C)[C@H]2CC[C@@]3(C)CC(=O)C=C3[C@]12C | 43 µg/mL (≈ 107 µM)
